Results from patent US8664201B2 (priority 2008, dated 2014).
Several values for one entry are separate records, joined by “and”; a condition that tells them apart may be missing. Equal entries are not always repeated. Structures can show the parent of a compound that is named as a salt. Marks after values point to notes of the source that are not given here.

Assays:
[1] = Acute toxicity, three daily IV bolus injections in mice (IPM lysine salt, IPM parent control); type: in vivo; conditions: for intravenous LD10 / intravenous LD50: IV daily × 3 days
Protocol: This example describes the evaluation of the acute toxicity of isophosphoramide mustard lysine salt, following three days of daily intravenous (bolus) injection in mice. This study consisted of two phases.
The second main study phase consisted of eight treatment groups (five mice/sex/group) that received the test article as a single daily dose for three consecutive days at respective dose levels of 50, 75, 100, 200, 300, 400, 500, and 600 mg/kg. An additional group (5 mice/sex) served as a parent compound control and received the isophosphoramide mustard parent compound in the same manner, at a dose level of 150 mg/kg. The vehicle was 0.9% sodium chloride for injection, USP and all doses were at a constant volume of 15 mL/kg.
Observations for mortality, morbidity, and the availability of food and water were conducted twice daily for all animals. Observations for clinical signs were conducted daily during the study (approximately one and four hours postdose on Days 1, 2, and 3, and once daily on non-dosing days). Body weights for all surviving animals were measured and recorded the second day after receipt, prior to randomization, and on Days-1 and 7. Body weights also were measured on all surviving main study phase animals on Day 14. Macroscopic evaluations were performed on each main study animal at necropsy (Day 15).
Eight main study treatment groups received the test article as a single daily dose for three consecutive days via intravenous (bolus) injection at respective dose levels of 50, 75, 100, 200, 300, 400, 500, and 600 mg/kg. An additional group (five mice/sex) served as a parent compound control and received the Isophosphoramide Mustard Parent Compound in the same manner at a dose level of 150 mg/kg. All doses were at a volume of 15 mL/kg and based on the most recent body weight.

[2] = system: MX-1 Human Breast Tumor; conditions: mouse, in vivo, ip
[3] = Estimated comparable human intravenous dosages
[4] = system: advanced cancer; test: Treatment of patients with advanced cancer with IPM.(LYS)2; type: in vivo, human
Protocol: One patient (cohort) was treated per dose escalation every 21-28 days to allow for toxicity presentation. Doses were escalated by 40% if there were no serious toxic events.

[5] = system: Lewis lung murine tumor; conditions: mouse, in vivo, ip

Structure (SMILES): O=P(O)(NCCCl)NCCCl [IPM lysine salt, isophosphoramide mustard lysine salt]
- Cumulative Mortality, female ([1]; 50 mg/kg IV daily × 3): 0/5
- Cumulative Mortality, male ([1]; 50 mg/kg IV daily × 3): 0/5
- Cumulative Mortality, total ([1]; 50 mg/kg IV daily × 3): No mice died
- Cumulative Mortality, total ([1]; 50 mg/kg IV daily × 3, listed as IPM Lysine Salt): No animals died and 0/10
- Cumulative Mortality, female ([1]; 75 mg/kg IV daily × 3): 0/5
- Cumulative Mortality, male ([1]; 75 mg/kg IV daily × 3): 0/5
- Cumulative Mortality, total ([1]; 75 mg/kg IV daily × 3): No mice died
- Cumulative Mortality, total ([1]; 75 mg/kg IV daily × 3, listed as IPM Lysine Salt): No animals died and 0/10
- Cumulative Mortality, female ([1]; 100 mg/kg IV daily × 3): 0/5
- Cumulative Mortality, male ([1]; 100 mg/kg IV daily × 3): 1/5
- Cumulative Mortality, total ([1]; 100 mg/kg IV daily × 3): 1 of 10
- Cumulative Mortality, total ([1]; 100 mg/kg IV daily × 3, listed as IPM Lysine Salt): 1 of 10 and 1/10
- Cumulative Mortality, female ([1]; 200 mg/kg IV daily × 3): 3/5
- Cumulative Mortality, male ([1]; 200 mg/kg IV daily × 3): 0/5
- Cumulative Mortality, total ([1]; 200 mg/kg IV daily × 3): No mice died
- Cumulative Mortality, total ([1]; 200 mg/kg IV daily × 3, listed as IPM Lysine Salt): 3 of 10 and 3/10
- Cumulative Mortality, female ([1]; 300 mg/kg IV daily × 3): 5/5
- Cumulative Mortality, male ([1]; 300 mg/kg IV daily × 3): 4/5
- Cumulative Mortality, total ([1]; 300 mg/kg IV daily × 3): 9 out of 10
- Cumulative Mortality, total ([1]; 300 mg/kg IV daily × 3, listed as IPM Lysine Salt): 9 of 10 and 9/10
- Cumulative Mortality, female ([1]; 400 mg/kg IV daily × 3): 5/5
- Cumulative Mortality, male ([1]; 400 mg/kg IV daily × 3): 5/5
- Cumulative Mortality, total ([1]; 400 mg/kg IV daily × 3): all mice died
- Cumulative Mortality, total ([1]; 400 mg/kg IV daily × 3, listed as IPM Lysine Salt): all animals died and 10/10
- Cumulative Mortality, female ([1]; 500 mg/kg IV daily × 3): 5/5
- Cumulative Mortality, male ([1]; 500 mg/kg IV daily × 3): 5/5
- Cumulative Mortality, total ([1]; 500 mg/kg IV daily × 3): all mice died
- Cumulative Mortality, total ([1]; 500 mg/kg IV daily × 3, listed as IPM Lysine Salt): all animals died and 10/10
- Cumulative Mortality, female ([1]; 600 mg/kg IV daily × 3): 5/5
- Cumulative Mortality, male ([1]; 600 mg/kg IV daily × 3): 5/5
- Cumulative Mortality, total ([1]; 600 mg/kg IV daily × 3): all mice died
- Cumulative Mortality, total ([1]; 600 mg/kg IV daily × 3, listed as IPM Lysine Salt): all animals died and 10/10
- Sub-acute IV LD10 ([1]; Mouse): 133 mg/kg/day
- intravenous LD10 ([1]; female mice): 179 mg/kg
- intravenous LD50 ([1]; female mice): 197 mg/kg
- macroscopic findings at necropsy ([1]; main study, Day 15): No treatment-related macroscopic findings
- intravenous LD10 ([1]; male mice): 140 mg/kg
- intravenous LD50 ([1]; male mice): 247 mg/kg
- intravenous LD10 ([1]; mice, combined sexes): 133 mg/kg
- intravenous LD50 ([1]; mice, combined sexes): 220 mg/kg
- LD10, intravenous three day dose schedule ([1]; mouse, × 3 days): 133 mg/kg/day
- MTD Dosage [2]: 93.2 mg/kg/dose
- T-C [2]: 10.2* days
- superiority to IPM at comparable dosing [2]: 8 fold
- estimated MTD in humans (1/10 the LD10 in mice) [3]: 40 mg/m^2/d
- Comparable Human IV Dosage ([3]; estimated from mouse sub-acute IV LD10): 40 mg/m^2/d
- serious toxicity in patients ([4]; 30, 42, 59 and 83 mg/m^2 daily IV for 3 days, one patient each): without serious toxicity
- disease response ([4]; one patient with rectal cancer, 83 mg/m^2 daily IV for 3 days): stabilization of their disease
- MTD Dosage [5]: 93.2 mg/kg/dose
- T-C [5]: 8.3* days
- increase of the MTD (mg/kg/dose) of the salt over parent drug [5]: 2 fold
